We go through eight compounds from patent publication US20260101895A1, “[…] AND COMPOSITION” (Innospec Limited, priority 2022, published 2026).

For data set [1] the following is noted: initial solubility; 2 g complex in 100 ml deionised water, room temperature, 20 minutes, filtered 0.45 μm. An excerpt: By the term “copper bioavailability” we mean the amount of copper that is released upon contact with water, i.e. so as to provide free copper ions for consumption by fungi. Copper bioavailability values may be measured using any suitable method, including the method as set out in the Examples. The copper bioavailability may be determined by measuring the content of copper in a sample (for example using a colorimetric test that compares to copper nitrate solutions of known concentrations) and converting the copper content to an amount of bioavailable copper (in ppm) using the formula: […]
The copper content is converted to bioavailable copper using the formula:
A solution of each copper amino carboxylic acid complex was prepared by dissolving 2 g of the copper complex in 100 ml deionised water and stirring at room temperature for 20 minutes. A sample of this solution was then withdrawn and filtered through a 0.45 μm syringe.
The filtered copper liquid was diluted with 1% nitric acid to yield a solution containing an approximate maximum of 1 mg/L Cu2+. The total copper content was then determined using a Perkin Elmer NexION 350D and converted to bioavailable copper using the formula above.

A short description of data set [2]: Repeated solubility: copper bioavailability over repeated wettings (colorimetric). Particulars: for Bioavailable copper Step 1 / Bioavailable copper Step 2 / Bioavailable copper Step 3 / Bioavailable copper Step 4 / Bioavailable copper Step 5: repeated solubility; for Bioavailable copper Step 1: 1 g complex in 50 ml deionised water, centrifuged, filtered, colorimetric 635 nm; for Bioavailable copper Step 2 / Bioavailable copper Step 3 / Bioavailable copper Step 4 / Bioavailable copper Step 5: undissolved material in 50 ml fresh deionised water. The procedure: The colorimetric absorbance at 635 nm using a Hach Lange DR3900 Spectrophotometer of copper nitrate solutions of known concentrations gives a linear relationship where:
Absorbance is relative to a standard solution of 9.9 ml deionised water, 0.1 ml 68 to 70% nitric acid
The copper content is converted to bioavailable copper using the formula: […]
To determine the copper content of each of the copper amino carboxylic acid complexes, 9.9 ml of filtered copper containing solution and 0.1 mL of 68 to 70% nitric acid was added to a spectrometer vial to completely react all of the copper complex to copper nitrate.
The absorbance at 635 nm (pre-zeroed with solution of 9.9 mL deionised water and 0.1 mL nitric acid) was recorded.
1 g of each copper amino carboxylic acid complex was added to 50 ml deionised water in a 50 ml centrifuge tube and stirred. The resulting mixture was centrifuged at 4000 rpm for 30 minutes, a sample of this was withdrawn and filtered through a 0.45 μm syringe. The copper content was determined using the above colorimetric method.
The remaining liquid in the centrifuge tube was poured away leaving only some undissolved material. 50 ml of fresh deionised water was added to the centrifuge tube containing undissolved material. The stirring and centrifugation process was repeated until no undissolved material remained.
These measurements indicate the bioavailability of the copper over repeated wettings in use.

Consider `O=C([O-])CNCC(=O)[O-].[Cu+2]` [Copper iminodiacetate], for which the “Bioavailable Cu by ICP-MS” value in data set [1] worked out at 33000 ppm. Further, in data set [2], the “Bioavailable copper Step 1” value worked out at 27750 ppm, the “Bioavailable copper Step 2” value amounted to 27750 ppm, the “Bioavailable copper Step 3” value was determined as 27750 ppm and the “Bioavailable copper Step 4” value is 27750 ppm. In addition, in data set [2], the “Bioavailable copper Step 5” value was determined as 27125 ppm. The “Bioavailability over repeated wettings/steps (in words)” value in data set [2] (summary of Table 2) is reported as “good bioavailability for 3 or more wettings/steps”.

Consider Copper 2-aminooctanoate, for which, in data set [1], the “Bioavailable Cu by ICP-MS” value is given as 150 ppm.

Consider Copper 12-aminododecanoate, for which the “Bioavailable Cu by ICP-MS” value in data set [1] came to 9200 ppm.

Copper L-asparaginate: the “Bioavailable Cu by ICP-MS” value in data set [1] was 7125 ppm.

Regarding Copper isoleucinate, the “Bioavailable Cu by ICP-MS” value in data set [1] is on record as 13050 ppm.

As to Copper lysinate, the “Bioavailable Cu by ICP-MS” value in data set [1] is listed as 106950 ppm. Also, in data set [2], the “Bioavailable copper Step 1” value worked out at 79000 ppm, the “Bioavailable copper Step 2” value was found to be 24000 ppm, the “Bioavailable copper Step 3” value was 8375 ppm and the “Bioavailable copper Step 4” value is on record as 4000 ppm. Further, the “Bioavailable copper Step 5” value in data set [2] came out at 0 ppm.

For Copper phenylalaninate, the “Bioavailable Cu by ICP-MS” value in data set [1] was found to be 5250 ppm.

Regarding Copper sarcosinate, in data set [1], the “Bioavailable Cu by ICP-MS” value is 278000 ppm.
